SMILES strings stand for the structures. Marks after values point to notes of the source that are not given here.

The source of these data is patent publication US12465588B2, “Indole carboxamide derivative and pharmaceutical composition containing same” (KUKJE PHARMA CO., LTD., priority 2019, dated 2025).

The subject of assay [1] is A549 human lung cancer cells. As to the kind of experiment: Measurement of PGE2 in IL-1β-treated A549 human lung cancer cells. The settings on record: PGE2 production, A549 cell, IL-1β 1 ng/mL, 48 hours. It is filed as cell-based. Here is the method: Samples at various concentrations were added at 24 hours after A549 human lung cancer cells were seeded. After 1 hour, IL-1β of 1 ng/mL was added. The cells were cultured for 48 hours and then the culture supernatant was collected. PGE2 of the collected supernatant was measured according to the manufacturer's instructions using a PGE2 EIA kit.

The test system of assay [2] is guinea pig model of osteoarthritis induced by MIA (monosodium iodoacetate). The assay is described as follows: Hind limb incapacitance test in guinea pig model of osteoarthritis induced by MIA. The format is in vivo. The settings on record: for Weight-bearing ratio: GRC27864 12.5 mg/kg oral. As for the experimental part: An experiment was conducted as follows in order to evaluate the efficacy of the compound according to the present invention for osteoarthritis-induced guinea pigs.
(§1) Specifically, male guinea pigs weighing about 500 g±20% from Coretech Co., Ltd. (Gyeonggi-do, Korea) were acclimated in a laboratory for 8 days, and provided chow and water ad libitum. Temperature (23±3° C.), humidity (55±15%) and light/dark cycle (12 hours, 08:00˜20:00) were controlled automatically.
(§2) Each group consisted of 10 guinea pigs. Guinea pigs were anesthetized with Zoletil 50 (VIRBAC, France, 5 mg/kg) and xylazine (Rompun®, Bayer AG, Germany, 2.5 mg/kg) and depilated at the area around the right knee with Clipper. Using a C-arm (ARCADIS Varic, SIEMENS Co.), it was confirmed that a syringe equipped with a 26 gauge needle was located in the joint cavity. 50 μL of MIA at a concentration of 60 mg/mL was administered into the joint cavity. One week after MIA administration, Compound 9 of the present invention was added to excipients (DMSO (10% by weight), Tween 80 (30% by weight), HMPC (same amount as the drug)), dissolved in water so that the total amount was 100% by weight, and orally administered to the prepared experimental animals at 10 mg/kg and 25 mg/kg, respectively. In the positive control group, GRC27864 was orally administered at 12.5 mg/kg using the same excipient, and only the excipient was orally administered to the control group. The drug was administered for 4 weeks.
(§3) The hind limb incapacitance test was performed for the behavioral evaluation weekly for 4 weeks and the inflammatory factor evaluation was performed by measuring PGE2, IL-1β, and TNF-α in blood after 4 weeks.
The hind limb weight-bearing ratios were obtained by setting up the animals at an inclination of 60 degrees in a plastic room using an incapacitance meter tester, measuring the intensity applied to each hind limb over 10 seconds, and calculating an average. Weight-bearing ratios are 50% for normal cases and up to early 30% for the cases in which a disease is induced.

The test system of assay [3] is PGE2, IL-1β, and TNF-α in blood. The assay is described as follows: Inflammatory factor evaluation (ELISA) in blood of MIA osteoarthritis guinea pigs. The settings on record: blood, after 4 weeks, 12.5 mpk oral. It is filed as in vivo, guinea pig. As for the experimental part: as §1, §2, §3
The concentrations of PGE2, IL-1β, and TNF-α in blood were measured using commercially available ELISA kit after 4 weeks. The results are shown in Table 4 below and FIGS. 2 to 4. ***, ** and * represent statistical significance compared to the control group, and are P<0.001, P<0.01, and P<0.05 compared to the control group.

For orientation: IC50 means the concentration that inhibits the measured activity by half. As for `CC(C)C(=O)NCc1ccc(Cl)c(-c2nc3cc(-c4ccc(C(F)(F)F)cc4)ncc3c(=O)[nH]2)c1` [GRC27864, reference compound], in assay [1], half-maximal inhibition (IC50) was put at 3.21 nM. The Weight-bearing ratio is 40.84 ± 2.68% in assay [2] (day 0); 43.66 ± 4.51% in assay [2] (day 7); 39.85 ± 3.29% in assay [2] (day 14); 37.35 ± 4.43% in assay [2] (day 21); 40.92 ± 3.85% in assay [2] (day 28). Also, in assay [2] (over 4 weeks of oral administration after MIA), the “weight-bearing ratios, course in words” value is reported as “did not worsen after MIA administration but were maintained”. Further, the “IL-1β (ELISA analysis)” value in assay [3] is 37.408 ± 9.109. The “PGE2 (ELISA analysis)” value in assay [3] was 7756.9 ± 1860.5**. Moreover, the “TNF-α (ELISA analysis)” value in assay [3] is 97.110 ± 20.595*.

In the case of `CC(C)C(=O)NCc1ccc(Cl)c(C(=O)Nc2ccc3c(c2)cc(C(=O)Nc2ccc(C(F)(F)F)nc2)n3C)c1` [Compound 18, 5-(2-chloro-5-(isobutyramidomethyl)benzamido)-1-methyl-N-(6-(trifluoromethyl)pyridin-3-yl)-1H-indole-2-carboxamide], the IC50 in assay [1] was 60 nM.

For the compound `CC(C)C(=O)NCc1ccc(Cl)c(CNc2ccc3c(c2)cc(C(=O)Nc2ccc(OC(F)(F)F)cc2)n3C)c1` [Compound 73, 5-((2-chloro-5-(isobutyramidomethyl)benzyl)amino)-1-methyl-N-(4-(trifluoromethoxy)phenyl)-1H-indole-2-carboxamide], in assay [1], the IC50 was 72.3 nM.

For the compound `CC(C)C(=O)NCc1ccc(Cl)c(C(=O)Nc2ccc3c(c2)cc(C(=O)NCc2ccc(Cl)cc2)n3C)c1` [Compound 49, 5-(2-chloro-5-(isobutyramidomethyl)benzamido)-N-(4-chlorobenzyl)-1-methyl-1H-indole-2-carboxamide], the IC50 in assay [1] worked out at 9.75 nM.

In turn, `CC(C)C(=O)NCc1ccc(Cl)c(C(=O)Nc2ccc3c(c2)cc(C(=O)Nc2cccc(F)c2)n3C)c1` [Compound 1, 5-(2-chloro-5-(isobutyramidomethyl)benzamido)-N-(3-fluorophenyl)-1-methyl-1H-indole-2-carboxamide] returned a 50% inhibitory concentration (IC50) in assay [1] of 277 nM.

Compound `CC(C)C(=O)NCc1ccc(Cl)c(C(=O)Nc2ccc3c(c2)cc(C(=O)N[C@@H](C)c2ccc(OC(F)(F)F)cc2)n3C)c1` [Compound 61, (S)-5-(2-chloro-5-(isobutyramidomethyl)benzamido)-1-methyl-N-(1-(4-(trifluoromethoxy)phenyl)ethyl)-1H-indole-2-carboxamide] showed an IC50 in assay [1] of 51.6 nM.

`CC(C)C(=O)NCc1ccc(Cl)c(C(=O)Nc2ccc3c(c2)cc(C(=O)NCc2cc(F)cc(C(F)(F)F)c2)n3CC(F)(F)F)c1` [Compound 69, 5-(2-chloro-5-(isobutyramidomethyl)benzamido)-N-(3-fluoro-5-(trifluoromethyl)benzyl)-1-(2,2,2-trifluoroethyl)-1H-indole-2-carboxamide] had an IC50 in assay [1] of 47 nM.

In assay [1], `CC(C)C(=O)NCc1ccc(Cl)c(C(=O)Nc2ccc3c(c2)cc(C(=O)NCc2ccc(OC(F)(F)F)cc2)n3CC(F)(F)F)c1` [Compound 72, 5-(2-chloro-5-(isobutyramidomethyl)benzamido)-1-(2,2,2-trifluoroethyl)-N-(4-(trifluoromethoxy)Benzyl)-1H-indole-2-carboxamide] returned a concentration for half-maximal inhibition (IC50) of 9.38 nM.

`Cc1c(-c2ccc(C(F)(F)F)cc2)n[nH]c1NC(=O)c1cc2cc(NC(=O)c3cc(CNC(=O)C(C)C)ccc3Cl)ccc2n1C` [Compound 20, 5-(2-chloro-5-(isobutyramidomethyl)benzamido)-1-methyl-N-(4-methyl-3-(4-(trifluoromethyl)phenyl)-1H-pyrazol-5-yl)-1H-indole-2-carboxamide]: the half-maximal inhibitory concentration (IC50) in assay [1] came to 6.87 nM.

As to `CC(C)C(=O)NCc1ccc(Cl)c(C(=O)Nc2ccc3c(c2)cc(C(=O)NCc2ccc(F)cc2)n3C)c1` [Compound 32, 5-(2-chloro-5-(isobutyramidomethyl)benzamido)-N-(4-fluorobenzyl)-1-methyl-1H-indole-2-carboxamide], the midpoint of inhibition in assay [1], the IC50, lay at 9.62 nM.

`Cc1cc(Cl)ccc1NC(=O)c1cc2cc(NC(=O)c3cc(CNC(=O)C(C)C)ccc3Cl)ccc2n1C` [Compound 22, N-(4-chloro-2-methylphenyl)-5-(2-chloro-5-(isobutyramidomethyl)benzamido)-1-methyl-1H-indole-2-carboxamide] showed an IC50 in assay [1] of 27.4 nM.

With `CC(C)C(=O)NCc1ccc(Cl)c(C(=O)Nc2ccc3c(c2)cc(C(=O)N[C@H](C)c2ccc(C(F)(F)F)cc2)n3C)c1` [Compound 58, (R)-5-(2-chloro-5-(isobutyramidomethyl)benzamido)-1-methyl-N-(1-(4-(trifluoromethyl)phenyl)ethyl)-1H-indole-2-carboxamide], the IC50 in assay [1] was determined as 5.54 nM.

As for `CC(C)C(=O)NCc1ccc(Cl)c(C(=O)Nc2ccc3c(c2)cc(C(=O)N2CCN(c4ncccn4)CC2)n3C)c1` [Compound 21, 2-chloro-5-(isobutyramidomethyl)-N-(1-methyl-2-(4-(pyrimidin-2-yl)piperazin-1-carbonyl)-1H-indole-5-yl)benzamide], in assay [1], the half-inhibitory concentration (IC50) was > 100 nM.

For the compound `CC(C)C(=O)NCc1ccc(Cl)c(C(=O)Nc2ccc3c(c2)cc(C(=O)NCc2ccc(C(C)(C)C)cc2)n3C)c1` [Compound 33, N-(4-(tert-butyl)benzyl)-5-(2-chloro-5-(isobutyramidomethyl)benzamido)-1-methyl-1H-indole-2-carboxamide], the IC50 in assay [1] came out at 9.59 nM.

`CC(C)C(=O)NCc1ccc(Cl)c(C(=O)Nc2ccc3c(c2)cc(C(=O)N[C@@H](C)c2ccc(C(F)(F)F)cc2)n3C)c1` [Compound 60, (S)-5-(2-chloro-5-(isobutyramidomethyl)benzamido)-1-methyl-N-(1-(4-(trifluoromethyl)phenyl)ethyl)-1H-indole-2-carboxamide]: in assay [1], inhibition was half-maximal at 30.3 nM (IC50).

The compound `CC(C)C(=O)NCc1ccc(Cl)c(C(=O)Nc2ccc3c(c2)cc(C(=O)NCc2ccc(F)cc2)n3CC(F)(F)F)c1` [Compound 68, 5-(2-chloro-5-(isobutyramidomethyl)benzamido)-N-(4-fluorobenzyl)-1-(2,2,2-trifluoroethyl)-1H-indole-2-carboxamide] registered an IC50 in assay [1] of 8.52 nM.

Consider `CC(C)C(=O)NCc1ccc(Cl)c(C(=O)Nc2ccc3c(c2)cc(C(=O)NCc2ccccc2C(F)(F)F)n3C)c1` [Compound 35, 5-(2-chloro-5-(isobutyramidomethyl)benzamido)-1-methyl-N-(2-(trifluoromethyl)benzyl)-1H-indole-2-carboxamide], for which the IC50 in assay [1] is 10.4 nM.

Compound `CC(C)C(=O)NCc1ccc(Cl)c(C(=O)Nc2ccc3c(c2)cc(C(=O)NCc2ccc(C(F)(F)F)cc2)n3C)c1` [Compound 34, 5-(2-chloro-5-(isobutyramidomethyl)benzamido)-1-methyl-N-(4-(trifluoromethyl)benzyl)-1H-indole-2-carboxamide] returned a half-inhibitory concentration (IC50) in assay [1] of 7.9 nM.

In assay [1], `CC(C)C(=O)NCc1ccc(Cl)c(C(=O)Nc2ccc3c(c2)cc(C(=O)N[C@@H](C)c2ccc([N+](=O)[O-])cc2)n3CC(F)(F)F)c1` [Compound 66, (S)-5-(2-chloro-5-(isobutyramidomethyl)benzamido)-N-(1-(4-nitrophenyl)ethyl)-1-(2,2,2-trifluoroethyl)-1H-indole-2-carboxamide] came in with a half-maximal inhibitory concentration (IC50) of 43.3 nM.
